# In patent US9095138B2, “Isoxazoline insecticides” (E.I. du Pont de Nemours and Company, priority 2007, dated 2015):
# Columns and labels:
# Format in all cases: in vivo
# [1] = system: diamondback moth (Plutella xylostella); experiment: Test A: control of diamondback moth on radish plant, foliar spray; settings: sprayed at 50 ppm; neonate larvae on radish; assessed after 6 days; replicated three times
# Method in brief: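 Radish plants 12–14 days old, pre-infested with about 50 neonate larvae, were sprayed with compound at 50 ppm in 10% acetone/water with 300 ppm X-77 surfactant, in three replicates. Units were held 6 days at 25 °C and 70% RH. Feeding damage was assessed visually and mortality was counted.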
# [2] = system: western flower thrips (Frankliniella occidentalis); experiment: Test E: control of western flower thrips on Soleil bean plant, contact and/or systemic; settings: adult thrips, assessed after 6 days, replicated three times
# Method in brief: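 A 5-7 day old Soleil bean plant was sprayed with compound at 250 or 50 ppm in 10% acetone/water with 300 ppm X-77 surfactant, dried 1 hour, then infested with 22-27 adult thrips. After 6 days at 25° C., 45-55% relative humidity, mortality and plant damage were rated; three replicates.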
# [3] = system: fall armyworm (Spodoptera frugiperda); experiment: Test B: control of fall armyworm on corn (maize) plant, foliar spray; settings: sprayed at 50 ppm; 1-day-old larvae on corn; replicated three times
# Method in brief: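 Corn plants 4–5 days old were infested with 10–15 one-day-old fall armyworm larvae. They were then sprayed at 50 ppm in 10% acetone/water with 300 ppm non-ionic surfactant, three replicates. After 6 days at 25 °C and 70% RH, feeding damage was assessed visually and mortality rated.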
structure (smiles),measurement,setting,value
O=C(CNC(=O)c1ccc(C2=NOC(c3cc(C(F)(F)F)cc(C(F)(F)F)c3)(C(F)(F)F)C2)c2ccccc12)NC1CC1 (stereo not shown) [Compound 55],control efficacy (feeding damage or mortality): very good to excellent levels,[1],20% or less feeding damage or 80% or more mortality
same,control efficacy (feeding damage or mortality): very good to excellent levels,[2]; sprayed at 50 ppm,20% or less feeding damage or 80% or more mortality
same,control efficacy (feeding damage or mortality): very good to excellent levels,[2]; sprayed at 250 ppm,20% or less feeding damage or 80% or more mortality
same,control efficacy (feeding damage or mortality): very good to excellent levels,[3],20% or less feeding damage or 80% or more mortality
